“And” between values parts separate entries of the source, which are not always exact repeats. Equal values may be shown once. Toxic doses and inconclusive results are not listed. Cut-off read from the data, not from the text of the source: active = T/C of 150% or more; inactive = T/C below 125%.
Tested on: L1210 leukemia ip in BDF1 mice, survival T/C
Assay: NCI In Vivo Anticancer Drug Screen. Data for tumor model L1210 Leukemia (intraperitoneal) in B6D2F1 (BDF1) mice
Conditions: endpoint: mean survival time, higher = longer survival
Procedure, shortened: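 Transplanted-tumor mice were given test agent; controls received vehicle only. Survival readings from the two groups were divided (treated over control).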

Measured: T/C

N[C@@H](Cc1ccc(N(CCCl)CCCl)cc1)C(=O)O
active: dose: 1.6 mg/kg/injection, schedule: Q01DX015 (ip), vehicle: carboxymethylcellulose (CMC) 154 % of control | dose: 2.0 mg/kg/injection, schedule: Q03DX Z (ip), vehicle: carboxymethylcellulose (CMC) 153 % of control | dose: 2.16 mg/kg/injection, schedule: Q04DX003 (ip), vehicle: saline 151 % of control | dose: 2.37 mg/kg/injection, schedule: Q01DX009 (ip), vehicle: other 150 % of control | dose: 4.0 mg/kg/injection, schedule: Q01DX009 (oral), vehicle: saline 151 % of control | dose: 8.0 mg/kg/injection, schedule: Q01DX005 (ip), vehicle: saline 154 % of control | dose: 25.0 mg/kg/injection, schedule: Q01DX001 (ip), vehicle: saline 154 % of control | dose: 30.0 mg/kg/injection, schedule: Q01DX001 (ip), vehicle: carboxymethylcellulose (CMC) 153 % of control
inactive: dose: 0.1 mg/kg/injection, schedule: Q01DX015 (ip), vehicle: carboxymethylcellulose (CMC) 101 % of control and 102 % of control | dose: 0.13 mg/kg/injection, schedule: Q01DX009 (ip), vehicle: Klucel (hydroxypropylcellulose) (HPC) 110 % of control | dose: 0.2 mg/kg/injection, schedule: Q01DX015 (ip), vehicle: carboxymethylcellulose (CMC) 104 % of control and 111 % of control | dose: 0.25 mg/kg/injection, schedule: Q01DX009 (ip), vehicle: Klucel (hydroxypropylcellulose) (HPC) 105 % of control and 115 % of control | dose: 0.39 mg/kg/injection, schedule: Q01DX001 (ip), vehicle: carboxymethylcellulose (CMC) 102 % of control | dose: 0.4 mg/kg/injection, schedule: Q01DX015 (ip), vehicle: carboxymethylcellulose (CMC) 109 % of control and 117 % of control | dose: 0.45 mg/kg/injection, schedule: Q04DX002 (ip), vehicle: Klucel (hydroxypropylcellulose) (HPC) 96 % of control | dose: 0.5 mg/kg/injection, schedule: Q01DX005 (ip), vehicle: saline 111 % of control | dose: 0.5 mg/kg/injection, schedule: Q01DX009 (ip), vehicle: Klucel (hydroxypropylcellulose) (HPC) 115 % of control and 116 % of control | dose: 0.5 mg/kg/injection, schedule: Q01DX009 (ip), vehicle: saline 120 % of control | dose: 0.5 mg/kg/injection, schedule: Q03DX Z (ip), vehicle: carboxymethylcellulose (CMC) 113 % of control | dose: 0.5 mg/kg/injection, schedule: Q03HX008 (ip), vehicle: saline 114 % of control | dose: 0.5 mg/kg/injection, schedule: Q03HX016 (ip), vehicle: saline 124 % of control | dose: 0.78 mg/kg/injection, schedule: Q01DX001 (ip), vehicle: carboxymethylcellulose (CMC) 108 % of control | dose: 0.8 mg/kg/injection, schedule: Q01DX015 (ip), vehicle: carboxymethylcellulose (CMC) 121 % of control | dose: 0.9 mg/kg/injection, schedule: Q04DX002 (ip), vehicle: Klucel (hydroxypropylcellulose) (HPC) 104 % of control and 115 % of control | dose: 1.0 mg/kg/injection, schedule: Q01DX005 (ip), vehicle: saline 123 % of control | dose: 1.0 mg/kg/injection, schedule: Q01DX006 (iv), vehicle: carboxymethylcellulose (CMC) 107 % of control | dose: 1.0 mg/kg/injection, schedule: Q01DX009 (oral), vehicle: saline 111 % of control | dose: 1.0 mg/kg/injection, schedule: Q01DX Z (im), vehicle: carboxymethylcellulose (CMC) 96 % of control | dose: 1.0 mg/kg/injection, schedule: Q01DX Z (ip), vehicle: carboxymethylcellulose (CMC) 94 % of control | dose: 1.0 mg/kg/injection, schedule: Q01DX Z (sc), vehicle: carboxymethylcellulose (CMC) 94 % of control | dose: 1.0 mg/kg/injection, schedule: Q03HX008 (ip), vehicle: saline 119 % of control | dose: 1.0 mg/kg/injection, schedule: Q#A X Z (ip), vehicle: carboxymethylcellulose (CMC) 94 % of control | dose: 1.13 mg/kg/injection, schedule: Q01DX001 (ip), vehicle: carboxymethylcellulose (CMC) 111 % of control and 121 % of control | dose: 1.56 mg/kg/injection, schedule: Q01DX001 (ip), vehicle: saline 104 % of control and 107 % of control | dose: 1.8 mg/kg/injection, schedule: Q04DX002 (ip), vehicle: Klucel (hydroxypropylcellulose) (HPC) 117 % of control and 118 % of control | dose: 2.0 mg/kg/injection, schedule: Q01DX006 (iv), vehicle: carboxymethylcellulose (CMC) 110 % of control | dose: 2.0 mg/kg/injection, schedule: Q01DX Z (im), vehicle: carboxymethylcellulose (CMC) 98 % of control | dose: 2.0 mg/kg/injection, schedule: Q01DX Z (ip), vehicle: carboxymethylcellulose (CMC) 93 % of control | dose: 2.0 mg/kg/injection, schedule: Q01DX Z (oral), vehicle: carboxymethylcellulose (CMC) 115 % of control | dose: 2.0 mg/kg/injection, schedule: Q01DX Z (sc), vehicle: carboxymethylcellulose (CMC) 104 % of control | dose: 3.0 mg/kg/injection, schedule: Q03DX Z (ip), vehicle: carboxymethylcellulose (CMC) 115 % of control | dose: 3.12 mg/kg/injection, schedule: Q01DX001 (ip), vehicle: saline 109 % of control and 112 % of control | dose: 3.6 mg/kg/injection, schedule: Q03HX024 (ip), vehicle: other 104 % of control | dose: 4.0 mg/kg/injection, schedule: Q01DX001 (ip), vehicle: saline 124 % of control | dose: 4.0 mg/kg/injection, schedule: Q01DX001 (sc), vehicle: saline 121 % of control | dose: 4.0 mg/kg/injection, schedule: Q01DX006 (iv), vehicle: carboxymethylcellulose (CMC) 102 % of control | dose: 4.0 mg/kg/injection, schedule: Q01DX Z (im), vehicle: carboxymethylcellulose (CMC) 104 % of control | dose: 4.0 mg/kg/injection, schedule: Q01DX Z (ip), vehicle: carboxymethylcellulose (CMC) 98 % of control | dose: 4.0 mg/kg/injection, schedule: Q01DX Z (oral), vehicle: carboxymethylcellulose (CMC) 104 % of control | dose: 4.0 mg/kg/injection, schedule: Q01DX Z (sc), vehicle: carboxymethylcellulose (CMC) 102 % of control | dose: 4.0 mg/kg/injection, schedule: Q03HX024 (ip), vehicle: saline 122 % of control | dose: 4.0 mg/kg/injection, schedule: Q#A X Z (ip), vehicle: carboxymethylcellulose (CMC) 110 % of control | dose: 6.0 mg/kg/injection, schedule: Q03DX Z (ip), vehicle: carboxymethylcellulose (CMC) 106 % of control | dose: 6.25 mg/kg/injection, schedule: Q01DX001 (ip), vehicle: saline 120 % of control | dose: 7.0 mg/kg/injection, schedule: Q01DX001 (ip), vehicle: carboxymethylcellulose (CMC) 110 % of control and 115 % of control | dose: 7.0 mg/kg/injection, schedule: Q07DX Z (ip), vehicle: carboxymethylcellulose (CMC) 107 % of control | dose: 7.5 mg/kg/injection, schedule: Q01DX009 (ip), vehicle: saline 100 % of control and 107 % of control | dose: 8.0 mg/kg/injection, schedule: Q01DX001 (oral), vehicle: saline 123 % of control | dose: 8.0 mg/kg/injection, schedule: Q01DX001 (sc), vehicle: saline 117 % of control | dose: 8.0 mg/kg/injection, schedule: Q01DX006 (iv), vehicle: carboxymethylcellulose (CMC) 104 % of control | dose: 8.0 mg/kg/injection, schedule: Q01DX009 (ip), vehicle: Klucel (hydroxypropylcellulose) (HPC) 121 % of control | dose: 8.0 mg/kg/injection, schedule: Q01DX009 (ip), vehicle: saline 114 % of control | dose: 8.0 mg/kg/injection, schedule: Q01DX009 (oral), vehicle: saline 112 % of control | dose: 8.0 mg/kg/injection, schedule: Q01DX009 (sc), vehicle: saline 95 % of control | dose: 8.0 mg/kg/injection, schedule: Q01DX Z (im), vehicle: carboxymethylcellulose (CMC) 98 % of control | dose: 8.0 mg/kg/injection, schedule: Q01DX Z (oral), vehicle: carboxymethylcellulose (CMC) 104 % of control | dose: 8.0 mg/kg/injection, schedule: Q01DX Z (sc), vehicle: carboxymethylcellulose (CMC) 96 % of control | dose: 12.0 mg/kg/injection, schedule: Q03DX Z (ip), vehicle: carboxymethylcellulose (CMC) 105 % of control | dose: 12.5 mg/kg/injection, schedule: Q01DX Z (ip), vehicle: carboxymethylcellulose (CMC) 102 % of control | dose: 14.0 mg/kg/injection, schedule: Q01DX001 (ip), vehicle: carboxymethylcellulose (CMC) 115 % of control and 117 % of control | dose: 14.0 mg/kg/injection, schedule: Q07DX Z (ip), vehicle: carboxymethylcellulose (CMC) 98 % of control | dose: 16.0 mg/kg/injection, schedule: Q01DX Z (ip), vehicle: carboxymethylcellulose (CMC) 106 % of control | dose: 16.0 mg/kg/injection, schedule: Q01DX Z (oral), vehicle: carboxymethylcellulose (CMC) 102 % of control | dose: 16.7 mg/kg/injection, schedule: Q01DX001 (ip), vehicle: saline 123 % of control | dose: 24.0 mg/kg/injection, schedule: Q03DX Z (ip), vehicle: carboxymethylcellulose (CMC) 105 % of control | dose: 28.0 mg/kg/injection, schedule: Q01DX001 (ip), vehicle: carboxymethylcellulose (CMC) 107 % of control | dose: 28.0 mg/kg/injection, schedule: Q07DX Z (ip), vehicle: carboxymethylcellulose (CMC) 94 % of control | dose: 29.0 mg/kg/injection, schedule: Q04DX003 (ip), vehicle: other 95 % of control | dose: 32.0 mg/kg/injection, schedule: Q01DX001 (ip), vehicle: saline 121 % of control | dose: 32.0 mg/kg/injection, schedule: Q01DX001 (oral), vehicle: saline 93 % of control | dose: 32.0 mg/kg/injection, schedule: Q01DX Z (oral), vehicle: carboxymethylcellulose (CMC) 104 % of control | dose: 56.0 mg/kg/injection, schedule: Q01DX001 (ip), vehicle: carboxymethylcellulose (CMC) 107 % of control and 117 % of control | dose: 56.0 mg/kg/injection, schedule: Q07DX Z (ip), vehicle: carboxymethylcellulose (CMC) 96 % of control

— PubChem BioAssay AID248 (DTP/NCI, 2004)
